As usually defined, the IC50 is the point on the concentration scale where inhibition reaches its midpoint.

Experiment [1] addresses T1, PfPdxK (pyridoxine/pyridoxal kinase) (Plasmodium falciparum, UniProt C6KT01).
T1 construct: gene PF3D7_0616000; recombinant, strep tag
Kind of experiment: kinase assay with [γ-33P]-ATP, recombinant purified PfPdxK, specific activity. The class given is biochemical.

The target of experiment [2] is T2, PfODC (bifunctional P. falciparum AdoMetDC/ODC) (Plasmodium falciparum, UniProt Q8IJ77).
T2 construct: gene PF3D7_1033100; recombinant bifunctional P. falciparum AdoMetDC/ODC, strep tag
T2 sequence (Q8IJ77 1-72): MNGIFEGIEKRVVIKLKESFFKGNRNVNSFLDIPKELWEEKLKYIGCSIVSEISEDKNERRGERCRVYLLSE
T2 sequence (Q8IJ77 73-1434): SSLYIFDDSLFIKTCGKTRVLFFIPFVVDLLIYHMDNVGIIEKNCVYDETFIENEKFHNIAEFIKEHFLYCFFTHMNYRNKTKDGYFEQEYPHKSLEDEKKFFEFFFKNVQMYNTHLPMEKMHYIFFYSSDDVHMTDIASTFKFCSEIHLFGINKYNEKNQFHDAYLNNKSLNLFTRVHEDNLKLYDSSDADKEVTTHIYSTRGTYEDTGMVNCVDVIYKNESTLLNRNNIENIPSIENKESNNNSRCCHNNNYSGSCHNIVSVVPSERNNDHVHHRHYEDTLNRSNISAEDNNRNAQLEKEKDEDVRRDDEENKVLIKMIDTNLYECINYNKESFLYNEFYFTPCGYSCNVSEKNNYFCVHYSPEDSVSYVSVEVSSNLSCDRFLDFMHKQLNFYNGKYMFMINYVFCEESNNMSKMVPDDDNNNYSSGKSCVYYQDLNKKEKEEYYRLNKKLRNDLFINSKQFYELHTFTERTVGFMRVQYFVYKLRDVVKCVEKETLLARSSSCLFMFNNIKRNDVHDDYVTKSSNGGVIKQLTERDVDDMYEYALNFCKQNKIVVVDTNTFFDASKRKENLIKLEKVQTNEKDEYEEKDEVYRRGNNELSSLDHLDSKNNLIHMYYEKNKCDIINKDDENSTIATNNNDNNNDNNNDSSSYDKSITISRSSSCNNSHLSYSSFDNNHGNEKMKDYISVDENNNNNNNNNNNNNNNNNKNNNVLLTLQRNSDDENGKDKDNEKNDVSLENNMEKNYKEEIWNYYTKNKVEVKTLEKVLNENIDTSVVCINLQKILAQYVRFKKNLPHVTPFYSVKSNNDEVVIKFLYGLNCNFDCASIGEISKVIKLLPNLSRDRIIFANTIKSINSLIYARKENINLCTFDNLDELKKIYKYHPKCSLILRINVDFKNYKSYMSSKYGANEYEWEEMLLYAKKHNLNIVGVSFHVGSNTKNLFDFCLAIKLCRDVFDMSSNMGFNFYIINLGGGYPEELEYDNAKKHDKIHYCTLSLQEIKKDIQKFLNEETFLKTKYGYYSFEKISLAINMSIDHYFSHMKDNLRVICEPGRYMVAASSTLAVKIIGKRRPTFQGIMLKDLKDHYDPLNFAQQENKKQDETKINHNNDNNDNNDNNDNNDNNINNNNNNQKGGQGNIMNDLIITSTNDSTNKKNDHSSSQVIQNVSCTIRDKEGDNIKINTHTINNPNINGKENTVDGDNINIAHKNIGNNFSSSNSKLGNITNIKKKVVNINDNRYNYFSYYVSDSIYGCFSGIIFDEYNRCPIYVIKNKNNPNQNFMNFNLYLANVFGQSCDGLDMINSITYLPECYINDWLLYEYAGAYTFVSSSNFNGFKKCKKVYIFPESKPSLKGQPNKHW
Description: […]CO2 release from […]-L-ornithine by recombinant PfODC/AdoMetDC with […] PLP. The format is biochemical. The conditions noted are these: read-out: Inhibition of PfODC activity IC50-value [μM] ^a).

T1 sequence (C6KT01 entry or part of it): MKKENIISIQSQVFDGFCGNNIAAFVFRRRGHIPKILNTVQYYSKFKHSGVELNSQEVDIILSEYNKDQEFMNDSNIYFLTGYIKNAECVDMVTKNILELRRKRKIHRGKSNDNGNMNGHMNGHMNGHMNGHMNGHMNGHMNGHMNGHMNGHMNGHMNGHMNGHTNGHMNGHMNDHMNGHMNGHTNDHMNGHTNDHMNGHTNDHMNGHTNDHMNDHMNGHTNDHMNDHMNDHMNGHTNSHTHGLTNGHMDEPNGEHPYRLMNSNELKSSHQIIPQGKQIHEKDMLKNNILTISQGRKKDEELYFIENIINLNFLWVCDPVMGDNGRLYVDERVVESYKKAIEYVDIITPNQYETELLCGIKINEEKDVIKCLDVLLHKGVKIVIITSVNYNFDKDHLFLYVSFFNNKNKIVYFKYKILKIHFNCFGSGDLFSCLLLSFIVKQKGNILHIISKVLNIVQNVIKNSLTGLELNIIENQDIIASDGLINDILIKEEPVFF

Turning to `COC(=O)C(Cc1c[nH]cn1)NCc1c(CO)cnc(C)c1O` (centres unmarked) [PHME], the “Specific activity of PfPdxK (nmol min^-1 mg^-1) ^a)” value (from here on “Specific activity of PfPdxK”) in experiment [1] turned out to be 64 ± 4 nmol/min/mg.

On to `COC(=O)C(Cc1c[nH]cn1)NCc1c(COP(=O)(O)O)cnc(C)c1O` (centres unmarked) [PPHME], for which the half-inhibitory concentration (IC50) in experiment [2] was determined as 58 ± 11 µM.

As to `COC(=O)C(Cc1c[nH]c2ccccc12)NCc1c(COP(=O)(O)O)cnc(C)c1O` (centres unmarked) [PPT5], the half-inhibitory concentration (IC50) in experiment [2] worked out at 64 ± 13 µM.

On to `COC(=O)[C@@H]1Cc2c([nH]c3ccccc23)[C@H](c2c(CO)cnc(C)c2O)N1` [PT3], for which the “Specific activity of PfPdxK” value in experiment [1] turned out to be 38 ± 4 nmol/min/mg.

On to `COC(=O)C(Cc1c[nH]c2ccccc12)NCc1c(CO)cnc(C)c1O` (centres unmarked) [PT5], for which, in experiment [1], the “Specific activity of PfPdxK” value was 20 ± 2 nmol/min/mg.

The values are drawn from publication PMC2634962, “Poisoning Pyridoxal 5-Phosphate-Dependent Enzymes: A New Strategy to Target the Malaria Parasite Plasmodium falciparum” (PLoS ONE, 2009).
